Results on 9 compounds are retold here after patent publication US12180193B2, “Accelerating fibrosarcoma protein degrading compounds and associated methods of use” (Arvinas Operations, Inc., priority 2020, dated 2024).

Test [1] concerns the target T1, BRAF V600E (Homo sapiens, UniProt P15056, V600E).
T1 construct: expressed in transfected cells
Description: Cellular assay of target protein degradation, T-Rex 293 cells stably transfected with HA-BRAF_V600E (HA immunofluorescence, high content imaging). In kind it is cell-based. In a few lines: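 Doxycycline-induced (1 ng/mL) cells were treated 24 h at 37 °C with compound at 1 μM to 0.1 nM final in 0.1% DMSO. After fixation, permeabilization and blocking, anti-HA staining was imaged by high-content reading; DC50 and Dmax (% of control) were derived.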

Test [2] addresses T2, BRAF G466V (Homo sapiens, UniProt P15056, G466V).
T2 construct: expressed in transfected cells
The test can be described thus: Cellular assay of target protein degradation, T-Rex 293 cells stably transfected with HA-BRAF G466V (HA immunofluorescence, high content imaging). In kind it is cell-based. In a few lines:
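Cells expressing doxycycline-induced (0.75 ng/mL) HA-BRAF G466V were treated with compound at 30 nM to 3 pM in 0.1% DMSO for 24 hours at 37° C. After fixation and permeabilization, HA was immunostained and quantified by high content imaging to derive DC50 and Dmax.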

Setting [3] is: half maximal degradation, T-Rex 293 HA-BRAF V600E; read-out: BRaf V600E DC50.
Setting [4] is: maximum degradation observed, T-Rex 293 HA-BRAF V600E.
[5] abbreviates: half maximal degradation, T-Rex 293 HA-BRAF G466V; read-out: BRaf G466V DC50.
Where [6] appears, read: maximum degradation observed, T-Rex 293 HA-BRAF G466V.

Structures are written as SMILES. Like-named read-outs stand apart in the source and are kept apart here.

T2 sequence (P15056 whole entry G466V): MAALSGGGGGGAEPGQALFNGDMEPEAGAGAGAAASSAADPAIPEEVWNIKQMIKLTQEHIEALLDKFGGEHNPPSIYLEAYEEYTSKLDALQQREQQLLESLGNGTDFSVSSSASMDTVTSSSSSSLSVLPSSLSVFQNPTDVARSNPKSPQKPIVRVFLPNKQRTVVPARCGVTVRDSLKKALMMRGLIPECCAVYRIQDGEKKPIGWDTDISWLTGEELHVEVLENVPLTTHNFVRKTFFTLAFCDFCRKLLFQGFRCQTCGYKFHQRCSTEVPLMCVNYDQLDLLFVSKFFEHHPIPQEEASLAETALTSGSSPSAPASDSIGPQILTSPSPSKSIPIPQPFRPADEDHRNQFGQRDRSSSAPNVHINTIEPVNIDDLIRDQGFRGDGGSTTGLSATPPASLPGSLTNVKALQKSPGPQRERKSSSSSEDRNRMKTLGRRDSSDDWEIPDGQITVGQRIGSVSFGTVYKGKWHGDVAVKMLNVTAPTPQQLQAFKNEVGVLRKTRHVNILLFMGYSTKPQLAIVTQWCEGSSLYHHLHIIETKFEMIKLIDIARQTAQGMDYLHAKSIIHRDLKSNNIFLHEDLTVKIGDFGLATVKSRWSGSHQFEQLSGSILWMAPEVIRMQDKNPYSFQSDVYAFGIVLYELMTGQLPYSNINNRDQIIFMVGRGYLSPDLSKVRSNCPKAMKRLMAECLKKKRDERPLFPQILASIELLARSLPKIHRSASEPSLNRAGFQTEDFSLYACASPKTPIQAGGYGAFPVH
T1 sequence (P15056 whole entry V600E): as the sequence (P15056 whole entry G466V) above, with V466G, V600E counted along it

A word on the DC50: it is the midpoint of the concentration-degradation curve. One may read the Dmax as the largest share of the target that was removed. Higher therefore signals a fuller loss of target. Take `COc1cc(C2CCN(CC3CC4(C3)CN(c3ccc(-c5cnc6[nH]cc(C(=O)c7c(F)ccc(NS(=O)(=O)N8CC[C@@H](F)C8)c7F)c6c5)cc3)C4)CC2)cc2c1C(=O)N(C1CCC(=O)NC1=O)C2` (stereo partly drawn) [Compound 54, (3R)-N-[3-(5-{4-[6-({4-[2-(2,6-dioxopiperidin-3-yl)-7-methoxy-1-oxo-2,3-dihydro-1H-isoindol-5-yl]piperidin-1-yl}methyl)-2-azaspiro[3.3]heptan-2-yl]phenyl}-1H-pyrrolo[2,3-b]pyridine-3-carbonyl)-2,4-difluorophenyl]-3-fluoropyrrolidine-1-sulfonamide]: the 50% degradation concentration (DC50) is 5 to 50 nM in test [1] (setting [3]) and less than 1 nM in test [2] (setting [5]). Also, the greatest degradation seen (Dmax) in test [1] (setting [4]) and in test [2] (setting [6]) was 35 to 70% throughout.

With `O=C1CC[C@H](N2Cc3cc(N4CCC(CN5CC6(C5)CN(c5ccc(-c7cnc8[nH]cc(C(=O)c9c(F)ccc(NS(=O)(=O)N%10CC[C@@H](F)C%10)c9F)c8c7)cc5)C6)CC4)c(F)cc3C2=O)C(=O)N1` [Compound 55, (3R)-N-{3-[5-(4-{6-[(1-{2-[(3S)-2,6-dioxopiperidin-3-yl]-6-fluoro-1-oxo-2,3-dihydro-1H-isoindol-5-yl}piperidin-4-yl)methyl]-2,6-diazaspiro[3.3]heptan-2-yl}phenyl)-1H-pyrrolo[2,3-b]pyridine-3-carbonyl]-2,4-difluorophenyl}-3-fluoropyrrolidine-1-sulfonamide], the DC50 in test [1] (setting [3]) was 5 to 50 nM; in test [2] (setting [5]) it was less than 1 nM. Besides, the values for the maximal degradation (Dmax) in test [1] (setting [4]) and in test [2] (setting [6]) were 35 to 70% and more than 70%, respectively.

For `O=C1CC[C@@H](N2Cc3cc(N4CCC(CN5CC6(C5)CN(c5ccc(-c7cnc8[nH]cc(C(=O)c9c(F)ccc(NS(=O)(=O)N%10CC[C@@H](F)C%10)c9F)c8c7)cc5)C6)CC4)c(F)cc3C2=O)C(=O)N1` [Compound 56, (3R)-N-{3-[5-(4-{6-[(1-{2-[(3R)-2,6-dioxopiperidin-3-yl]-6-fluoro-1-oxo-2,3-dihydro-1H-isoindol-5-yl}piperidin-4-yl)methyl]-2,6-diazaspiro[3.3]heptan-2-yl}phenyl)-1H-pyrrolo[2,3-b]pyridine-3-carbonyl]-2,4-difluorophenyl}-3-fluoropyrrolidine-1-sulfonamide], the 50% degradation concentration (DC50) in test [1] (setting [3]) was 5 to 50 nM; in test [2] (setting [5]), less than 1 nM. Besides, the results for the Dmax in test [1] (setting [4]) and in test [2] (setting [6]) were 35 to 70% and more than 70%, respectively.

For `O=C1CC[C@H](N2Cc3cc(N4C[C@H]5CN(CC6CCN(c7ccc(-c8cnc9[nH]cc(C(=O)c%10c(F)ccc(NS(=O)(=O)N%11CC[C@@H](F)C%11)c%10F)c9c8)cc7)CC6)C[C@H]5C4)ccc3C2=O)C(=O)N1` [Compound 57, (3R)-N-(3-{5-[4-(4-{[(3aR,6aS)-5-{2-[(3S)-2,6-dioxopiperidin-3-yl]-1-oxo-2,3-dihydro-1H-isoindol-5-yl}-octahydropyrrolo [3,4-c]pyrrol-2-yl]methyl}piperidin-1-yl)phenyl]-1H-pyrrolo[2,3-b]pyridine-3-carbonyl}-2,4-difluorophenyl)-3-fluoropyrrolidine-1-sulfonamide], the 50% degradation concentration (DC50) in test [1] (setting [3]) is less than 5 nM; in test [2] (setting [5]), less than 1 nM. In addition, the maximal degradation (Dmax) in test [1] (setting [4]) is 35 to 70%; in test [2] (setting [6]), more than 70%.

Turning to `O=C1CC[C@@H](N2Cc3cc(N4C[C@H]5CN(CC6CCN(c7ccc(-c8cnc9[nH]cc(C(=O)c%10c(F)ccc(NS(=O)(=O)N%11CC[C@@H](F)C%11)c%10F)c9c8)cc7)CC6)C[C@H]5C4)ccc3C2=O)C(=O)N1` [Compound 58, (3R)-N-(3-{5-[4-(4-{[(3aR,6aS)-5-{2-[(3R)-2,6-dioxopiperidin-3-yl]-1-oxo-2,3-dihydro-1H-isoindol-5-yl}-octahydropyrrolo [3,4-c]pyrrol-2-yl]methyl}piperidin-1-yl)phenyl]-1H-pyrrolo[2,3-b]pyridine-3-carbonyl}-2,4-difluorophenyl)-3-fluoropyrrolidine-1-sulfonamide], the DC50 in test [1] (setting [3]) is less than 5 nM; in test [2] (setting [5]), less than 1 nM. Also, the Dmax was less than 35% in test [1] (setting [4]) and 35 to 70% in test [2] (setting [6]).

For the compound `COc1cc(N2CC3(CC(CN4CCN(c5ccc(-c6cnc7[nH]cc(C(=O)c8c(F)ccc(NS(=O)(=O)N9CC[C@@H](F)C9)c8F)c7c6)cc5)CC4)C3)C2)cc2c1C(=O)N(C1CCC(=O)NC1=O)C2` (stereo partly drawn) [Compound 59, (3R)-N-[3-(5-{4-[4-({2-[2-(2,6-dioxopiperidin-3-yl)-7-methoxy-1-oxo-2,3-dihydro-1H-isoindol-5-yl]-2-azaspiro[3.3]heptan-6-yl}methyl)piperazin-1-yl]phenyl}-1H-pyrrolo[2,3-b]pyridine-3-carbonyl)-2,4-difluorophenyl]-3-fluoropyrrolidine-1-sulfonamide], the DC50 lay in the range of 5 to 50 nM in test [1] (setting [3]) and 1 to 10 nM in test [2] (setting [5]). Also, the maximal degradation (Dmax) in test [1] (setting [4]) is 35 to 70%; in test [2] (setting [6]), more than 70%.

For `CC(C)(C1CCN(c2ccc(-c3cnc4[nH]cc(C(=O)c5c(F)ccc(NS(=O)(=O)N6CC[C@@H](F)C6)c5F)c4c3)cc2)CC1)N1CC2(CN(c3ccc4c(c3)CN(C3CCC(=O)NC3=O)C4=O)C2)C1` (stereo partly drawn) [Compound 60, (3R)-N-[3-(5-{4-[4-(2-{6-[2-(2,6-dioxopiperidin-3-yl)-1-oxo-2,3-dihydro-1H-isoindol-5-yl]-2,6-diazaspiro[3.3]heptan-2-yl}propan-2-yl)piperidin-1-yl]phenyl}-1H-pyrrolo[2,3-b]pyridine-3-carbonyl)-2,4-difluorophenyl]-3-fluoropyrrolidine-1-sulfonamide], the Dmax in test [1] (setting [4]) was 35 to 70%; in test [2] (setting [6]), more than 70%. Further, the DC50 in test [1] (read-out: BRaf V600E DC50; half maximal degradation, T-Rex 293 HA-BRAF V600E) lay within 5 to 50 nM; in test [2] (read-out: BRaf G466V DC50; half maximal degradation, T-Rex 293 HA-BRAF G466V) it was 1 to 10 nM.

For `O=C1CCC(N2Cc3cc(C(O)CCN4CC5(C4)CN(c4ccc(-c6cnc7[nH]cc(C(=O)c8c(F)ccc(NS(=O)(=O)N9CC[C@@H](F)C9)c8F)c7c6)cc4)C5)ccc3C2=O)C(=O)N1` (stereo partly drawn) [Compound 61, (3R)-N-(3-{5-[4-(6-{3-[2-(2,6-dioxopiperidin-3-yl)-1-oxo-2,3-dihydro-1H-isoindol-5-yl]-3-hydroxypropyl}-2,6-diazaspiro[3.3]heptan-2-yl)phenyl]-1H-pyrrolo[2,3-b]pyridine-3-carbonyl}-2,4-difluorophenyl)-3-fluoropyrrolidine-1-sulfonamide], the 50% degradation concentration (DC50) lay within 5 to 50 nM in test [1] (setting [3]) and 1 to 10 nM in test [2] (setting [5]). Moreover, the greatest degradation seen (Dmax) in test [1] (setting [4]) and in test [2] (setting [6]) was 35 to 70% in each case.

On to `O=C1CC[C@H](N2Cc3cc(CCCCN4CC5(C4)CN(c4ccc(-c6cnc7[nH]cc(C(=O)c8c(F)ccc(NS(=O)(=O)N9CC[C@@H](F)C9)c8F)c7c6)cc4)C5)ccc3C2=O)C(=O)N1` [Compound 62, (3R)-N-[3-(5-{4-[6-(4-{2-[(3S)-2,6-dioxopiperidin-3-yl]-1-oxo-2,3-dihydro-1H-isoindol-5-yl}butyl)-2,6-diazaspiro[3.3]heptan-2-yl]phenyl}-1H-pyrrolo[2,3-b]pyridine-3-carbonyl)-2,4-difluorophenyl]-3-fluoropyrrolidine-1-sulfonamide], for which the DC50 in test [1] (setting [3]) was less than 5 nM; in test [2] (setting [5]) it was less than 1 nM. The maximal degradation (Dmax) in test [1] (setting [4]) and in test [2] (setting [6]) was 35 to 70% throughout.
